Target: T1, Heparanase (Homo sapiens, UniProt Q9Y251)
T1 sequence (Q9Y251 whole entry): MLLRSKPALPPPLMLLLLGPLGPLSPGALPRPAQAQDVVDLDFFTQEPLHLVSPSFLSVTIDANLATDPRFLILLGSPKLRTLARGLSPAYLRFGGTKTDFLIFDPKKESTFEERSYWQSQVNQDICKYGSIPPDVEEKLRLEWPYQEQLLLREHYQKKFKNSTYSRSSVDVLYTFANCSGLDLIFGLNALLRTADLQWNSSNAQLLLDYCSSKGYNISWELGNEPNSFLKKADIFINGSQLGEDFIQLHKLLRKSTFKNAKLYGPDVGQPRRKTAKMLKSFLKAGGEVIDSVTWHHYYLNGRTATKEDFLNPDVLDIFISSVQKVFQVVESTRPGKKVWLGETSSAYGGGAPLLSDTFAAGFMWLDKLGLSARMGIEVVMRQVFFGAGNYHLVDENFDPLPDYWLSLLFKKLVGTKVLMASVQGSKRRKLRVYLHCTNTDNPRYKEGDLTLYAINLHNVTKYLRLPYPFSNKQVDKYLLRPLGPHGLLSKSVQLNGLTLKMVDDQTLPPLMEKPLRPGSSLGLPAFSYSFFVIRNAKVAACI
Assay: Inhibition of recombinant human heparanase assessed as fondaparinux cleavage by measuring disaccharide by colorimetric analysis

Row | Compound | IC50
1 | CO[C@H]1O[C@H](COS(=O)(=O)O)[C@@H](O[C@@H]2O[C@@H](C(=O)O)[C@@H](O[C@H]3O[C@H](COS(=O)(=O)O)[C@@H](OC)[C@H](O)[C@H]3NS(=O)(=O)O)[C@H](O)[C@H]2O)[C@H](O)[C@H]1NS(=O)(=O)O | > 103 µM
2 | CO[C@H]1O[C@H](COS(=O)(=O)O)[C@@H](O[C@@H]2O[C@H](C(=O)O)[C@@H](O[C@H]3O[C@H](COS(=O)(=O)O)[C@@H](OC)[C@H](O)[C@H]3NS(=O)(=O)O)[C@H](O)[C@H]2O)[C@H](O)[C@H]1NS(=O)(=O)O | > 103 µM
3 | CO[C@H]1O[C@H](COS(=O)(=O)O)[C@@H](O[C@H](O[C@@H](C(=O)O)[C@@H](O[C@H]2O[C@H](COS(=O)(=O)O)[C@@H](O[C@H](O[C@@H](C(=O)O)[C@@H](OC)C(=O)O)C(=O)O)[C@H](O)[C@H]2NS(=O)(=O)O)C(=O)O)C(=O)O)[C@H](O)[C@H]1NS(=O)(=O)O | 7.57 µM
4 | CO[C@H]1O[C@H](COS(=O)(=O)O)[C@@H](O[C@@H]2O[C@@H](C(=O)O)[C@@H](O[C@H]3O[C@H](COS(=O)(=O)O)[C@@H](O[C@@H]4O[C@@H](C(=O)O)[C@@H](OC)[C@H](O)[C@H]4O)[C@H](O)[C@H]3NS(=O)(=O)O)[C@H](O)[C@H]2O)[C@H](O)[C@H]1NS(=O)(=O)O | > 85.3 µM
5 | CO[C@H]1O[C@H](COS(=O)(=O)O)[C@@H](O[C@H](O[C@@H](C(=O)O)[C@H](O[C@H]2O[C@H](COS(=O)(=O)O)[C@@H](OC)[C@H](O)[C@H]2NS(=O)(=O)O)C(=O)O)C(=O)O)[C@H](O)[C@H]1NS(=O)(=O)O | > 95.4 µM

Now from value to molecule:

Row | IC50 | Compound
6 | 37.9 µM | CO[C@H]1O[C@H](COS(=O)(=O)O)[C@@H](O[C@@H](CO)O[C@@H](C(=O)O)[C@@H](CO)O[C@H]2O[C@H](COS(=O)(=O)O)[C@@H](OC)[C@H](O)[C@H]2NS(=O)(=O)O)[C@H](O)[C@H]1NS(=O)(=O)O
7 | 76.8 µM | CO[C@H]1O[C@H](COS(=O)(=O)O)[C@@H](O[C@@H](CO)O[C@H](C(=O)O)[C@@H](CO)O[C@H]2O[C@H](COS(=O)(=O)O)[C@@H](OC)[C@H](O)[C@H]2NS(=O)(=O)O)[C@H](O)[C@H]1NS(=O)(=O)O
8 | 63.7 µM | CO[C@H]1O[C@H](COS(=O)(=O)O)[C@@H](O[C@@H](CO)O[C@@H](C(=O)O)[C@H](CO)O[C@H]2O[C@H](COS(=O)(=O)O)[C@@H](O[C@@H](CO)O[C@@H](C(=O)O)[C@H](CO)OC)[C@H](O)[C@H]2NS(=O)(=O)O)[C@H](O)[C@H]1NS(=O)(=O)O
9 | 71.5 µM | CO[C@H]1O[C@H](COS(=O)(=O)O)[C@@H](O[C@H](O[C@H](C(=O)O)[C@H](O[C@H]2O[C@H](COS(=O)(=O)O)[C@@H](OC)[C@H](O)[C@H]2NS(=O)(=O)O)C(=O)O)C(=O)O)[C@H](O)[C@H]1NS(=O)(=O)O
